Source: patent US10954265B2 (Van Andel Research Institute, priority 2016, dated 2021)
Numbering of substitutions follows the chain as printed. “And” between values parts separate entries of the source, which are not always exact repeats. Identical values can stand only once.

Key:
GR [1] = biological target: T1, GR (Homo sapiens, UniProt P04150); assay: Determination of induction activity, MMTV-Luc reporter in AD293 cells transfected with pRShGR (Table 3, FIG. 14); details: for RLU / RLU/Renilla: single replicate wells; for activation at 0.01 µM / activation at 1 µM: AD293, 16 h, read-out: % to Dex induction; for fold induction at 0.01 µM / fold induction at 1 µM: AD293, read-out: Steroid Fold Induction; for % to Dex induction: relative to DEX 1000 nM
T1 sequence (P04150 1-777): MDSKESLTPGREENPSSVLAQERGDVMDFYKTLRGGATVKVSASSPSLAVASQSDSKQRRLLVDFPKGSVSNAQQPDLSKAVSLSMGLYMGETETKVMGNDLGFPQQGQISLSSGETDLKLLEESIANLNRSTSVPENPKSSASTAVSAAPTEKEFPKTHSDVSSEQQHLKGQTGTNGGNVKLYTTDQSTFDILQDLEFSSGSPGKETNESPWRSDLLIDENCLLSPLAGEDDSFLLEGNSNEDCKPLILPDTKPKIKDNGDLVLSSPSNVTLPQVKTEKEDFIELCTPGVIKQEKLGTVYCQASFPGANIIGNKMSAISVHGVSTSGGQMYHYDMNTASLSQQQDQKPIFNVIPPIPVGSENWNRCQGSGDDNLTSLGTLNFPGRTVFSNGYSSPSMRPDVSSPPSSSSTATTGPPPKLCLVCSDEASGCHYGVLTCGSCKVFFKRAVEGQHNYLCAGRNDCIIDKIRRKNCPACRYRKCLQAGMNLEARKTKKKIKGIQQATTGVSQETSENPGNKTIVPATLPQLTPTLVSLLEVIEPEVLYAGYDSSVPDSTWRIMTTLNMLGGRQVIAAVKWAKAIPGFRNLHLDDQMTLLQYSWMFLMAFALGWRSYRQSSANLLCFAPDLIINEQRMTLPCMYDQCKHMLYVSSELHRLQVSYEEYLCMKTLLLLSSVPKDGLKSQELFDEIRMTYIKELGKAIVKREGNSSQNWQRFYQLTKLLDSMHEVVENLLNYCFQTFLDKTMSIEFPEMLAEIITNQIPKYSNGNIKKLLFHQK
Procedure: (§1) AD293 cells were split at 20,000/well in 24 well plate one day before transfection. For transactivation, 100 ng pHHLuc (MMTV-Luc) plasmid, 0.1 ng pRShGR together with 5 ng phRGtkRenilla were transfected by X-tremeGENE 9 (Roche) into AD293 cells per well. For transreperssion, 10 ng AP1-Luc, 100 ng pRShGR and 5 ng phRGtkRenilla were transfected into AD293 cells per well. One day after transfection, cells were induced by different treatment (steroids or vehicle) 16 hrs overnight. Cells were harvest by 1× passive lysis buffer (Promega), luciferase activity was assayed by the Dual-Glo Luciferase system (Promega). Data were plotted by Luciferase Value/Renilla Value, as Relative Luciferase Unit (RLU).
AD293 cells were transfected with 0.1 ng pRShGR, 100 ng MMTV-Luc reporter, and 10 ng TK-Renilla internal control per well in a 24-well plate. One day after transfection, cells were induced by candidate compounds at a concentration of 10 nm or 1 um (see FIG. 14). Cells were harvested and luciferase activity was measured by Promega Dual Luciferacse kit.

[2] = system: OVA-induced mouse asthma model; assay: OVA-induced mouse asthma model, lung function (RL) by FlexiVent; type: in vivo
Procedure: A OVA-induced mouse asthma model was used to examine the anti-inflammatory effect of candidate compounds. 7-9 weeks old Balb/c mice were primarily immunized with OVA (ovalbumin). […] Related Lung (RL) function in response to acetylcholine was measured by the forced oscillation techniques with the FlexiVent system (SCIREQ).
To evaluate the effect of candidate compounds in repressing lung inflammation, a OVA-induced mouse asthma model was used (RL: relative lung function).

GR [3] = biological target: T1, GR; assay: Potency of candidate compounds in MMTV-luciferase reporter, full dose-response (FIG. 16A); type: cell-based; set-up: expressed in transfected cells; host or cells: AD293; details: doses 0.01 nM to 1000 nM
Source text: To evaluate the potency of candidate compounds in a reporter system, an MMTV-luciferase reporter was used.

GR Q642N = biological target: T2, GR Q642N (Homo sapiens, UniProt P04150, Q642N); assay: Transactivation on MMTV-Luc in AD293 cells, GR Q642N mutant; type: cell-based; details: compared with wild type, up to saturation concentration
T2 construct: expressed in transfected cells; host or cells: AD293
T2 sequence (P04150 1-777 Q642N): T1 sequence (P04150 1-777) with Q642N
Procedure: as §1

GR [4] = biological target: T1, GR; assay: GR transactivation, MMTV-driven luciferase reporter (MMTV-Luc) in AD293 cells; type: cell-based; set-up: expressed in transfected cells; host or cells: AD293; details: transactivation assay, FIG. 3B
Procedure: as §1

Compound	Mean (RLU/Renilla) (GR [1]; 10 nM)	induction activity compared to other candidate compounds and VSGC12 (GR [1]; 10 nM)	RLU (GR [1]; 10 nM)	RLU/Renilla (GR [1]; 10 nM)	Mean (RLU/Renilla) (GR [1]; 1000 nM)	RLU (GR [1]; 1000 nM)	RLU/Renilla (GR [1]; 1000 nM)	activation at 0.01 µM (GR [1])	activation at 1 µM (GR [1])	fold induction at 0.01 µM (GR [1])	fold induction at 1 µM (GR [1])	repression of lung inflammation compared with VSGC12 ([2]; 0.125 mg/kg, FIG. 16B)	increase in potency over fluticasone furoate (FF) ([2]; FIG. 15)	potency in repressing lung inflammation compared with FF ([2]; FIG. 15, side by side comparison)	potency compared with VSGC12 and DEX (GR [3])	% to Dex induction (GR [1]; 10 nM)	% to Dex induction (GR [1]; 1000 nM)	full dose-response curve of Q642N (GR Q642N)	leftward shift of the cortisol dose-response curve (GR [4])
C[C@@H]1CC2C3C=C(F)C4=Cc5c(cnn5-c5ccccc5)C[C@]4(C)[C@@]3(F)C(O)C[C@]2(C)[C@@]1(OC(=O)c1ccco1)C(=O)O (stereo partly shown) [Compound 1]	0.119	much lower induction activity	21,720 and 17,200 and 24,320	0.116 and 0.093 and 0.149	0.806	186,480 and 180,880 and 219,480	0.642 and 0.818 and 0.959	8.33%	56.2%	2.42	16.4								
CCOC(=O)[C@@]1(OC(=O)c2ccco2)[C@H](C)CC2C3C=C(F)C4=Cc5c(cnn5-c5ccccc5)C[C@]4(C)[C@@]3(F)C(O)C[C@@]21C (stereo partly shown) [Compound 2]	1.328		221,760 and 206,200 and 190,520	1.316 and 1.430 and 1.238	1.311	296,680 and 295,960 and 323,600	1.365 and 1.267 and 1.302	92.6%	91.5%	26.9	26.6								
CC(C)OC(=O)[C@@]1(OC(=O)c2ccco2)[C@H](C)CC2C3C=C(F)C4=Cc5c(cnn5-c5ccccc5)C[C@]4(C)[C@@]3(F)C(O)C[C@@]21C (stereo partly shown) [Compound 3]	1.462		295,280 and 295,520 and 299,320	1.505 and 1.300 and 1.580	1.219	249,160 and 279,160 and 254,120	1.143 and 1.332 and 1.181	102%	85%	29.6	24.7								
C[C@@H]1CC2C3C=C(F)C4=Cc5c(cnn5-c5ccccc5)C[C@]4(C)[C@@]3(F)C(O)C[C@]2(C)[C@@]1(OC(=O)c1ccco1)C(=O)OCF (stereo partly shown) [Compound 4]	1.332		288,320 and 249,160 and 244,360	1.518 and 1.258 and 1.222	1.153	222,960 and 225,280 and 226,280	1.178 and 1.134 and 1.147	92.9%	80.4%	27	23.4	much higher repression activity	8 fold	much more potent	higher potency				
C[C@@H]1CC2C3C=C(F)C4=Cc5c(cnn5-c5ccccc5)C[C@]4(C)[C@@]3(F)C(O)C[C@]2(C)[C@@]1(OC(=O)c1ccco1)C(=O)SCF (stereo partly shown) [Compound 5]	1.444		298,760 and 265,160 and 249,760	1.485 and 1.433 and 1.413	1.235	346,400 and 350,240 and 345,760	1.108 and 1.227 and 1.371	101%	86.1%	29.3	25								
C[C@@H]1CC2C3C=C(F)C4=Cc5c(cnn5-c5ccccc5)C[C@]4(C)[C@@]3(F)C(O)C[C@]2(C)[C@@]1(OC(=O)c1ccco1)C(=O)OC(C)(C)C (stereo partly shown) [Compound 6]	1.417		353,720 and 347,400 and 378,600	1.291 and 1.356 and 1.605	1.614	385,840 and 290,120 and 330,680	1.694 and 1.490 and 1.659	98.8%	113%	28.7	32.7								
C[C@@H]1C[C@H]2[C@@H]3CCC4=CC(=O)C=C[C@]4(C)[C@@]3(F)[C@@H](O)C[C@]2(C)[C@@]1(O)C(=O)CO [DEX, dexamethasone, reference compound]																52.82%	100%		
CON(C)C(=O)[C@@]1(OC(=O)c2ccco2)[C@H](C)CC2C3C=C(F)C4=Cc5c(cnn5-c5ccccc5)C[C@]4(C)[C@@]3(F)C(O)C[C@@]21C (stereo partly shown) [VSGC12, reference compound]	1.402		316,240 and 298,600 and 289,480	1.598 and 1.522 and 1.085	1.682	331,400 and 309,120 and 312,400	1.767 and 1.765 and 1.513	97.8%	117%	28.4	34.1								
C[C@]12CCC(=O)C=C1CC[C@@H]1[C@@H]2[C@@H](O)C[C@@]2(C)[C@H]1CC[C@]2(O)C(=O)CO [cortisol, Cortisol]																		inactive	
C[C@]12C=CC(=O)C=C1CC[C@@H]1[C@@H]2[C@@H](O)C[C@@]2(C)[C@H]1CC[C@]2(O)C(=O)CO [prednisolone]																			about 5 fold
